Results on seven molecules are retold here after ChEMBL document CHEMBL4321854, “Discovery of a First-in-Class Mitogen-Activated Protein Kinase Kinase 1/2 Degrader” (J Med Chem, 2019).

Each structure is given as a SMILES string. Activity calls are given as the source filed them. The rule behind the calls is not given here.

In test [1] the target is T1, von Hippel-Lindau disease tumor suppressor/Dual specificity mitogen-activated protein kinase kinase 1 (Homo sapiens) (UniProt Q02750+P40337). The experiment in a line: Protac activity against VHL/MEK1 in human HT-29 cells harboring BRAF V600E variant assessed as degradation of MEK1 at 0.3 to 3 uM after 24 hrs by Western blot analysis. It is filed as cell-based. A general note: In western blotting, separated proteins are transferred to a membrane and probed.
T1 sequence (P40337 whole entry, looked up): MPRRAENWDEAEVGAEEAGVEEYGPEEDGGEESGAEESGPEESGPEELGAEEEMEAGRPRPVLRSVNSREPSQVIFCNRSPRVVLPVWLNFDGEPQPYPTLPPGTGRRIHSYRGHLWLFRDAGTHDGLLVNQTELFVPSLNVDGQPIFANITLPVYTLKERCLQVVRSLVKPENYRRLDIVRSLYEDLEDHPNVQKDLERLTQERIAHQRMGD
T1 sequence (Q02750 whole entry, looked up): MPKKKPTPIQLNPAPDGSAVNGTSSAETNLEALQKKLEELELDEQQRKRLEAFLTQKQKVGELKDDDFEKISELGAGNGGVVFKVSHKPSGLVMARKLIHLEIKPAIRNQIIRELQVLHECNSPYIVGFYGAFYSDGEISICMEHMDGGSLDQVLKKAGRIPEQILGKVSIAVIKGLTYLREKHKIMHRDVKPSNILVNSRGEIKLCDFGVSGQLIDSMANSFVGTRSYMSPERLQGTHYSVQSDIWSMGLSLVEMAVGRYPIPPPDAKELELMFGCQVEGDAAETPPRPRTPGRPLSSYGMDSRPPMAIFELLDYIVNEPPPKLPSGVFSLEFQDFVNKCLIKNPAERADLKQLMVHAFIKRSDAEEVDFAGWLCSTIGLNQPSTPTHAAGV

Test [2] deals with T2, von Hippel-Lindau disease tumor suppressor/Dual specificity mitogen-activated protein kinase kinase 2 (Homo sapiens) (UniProt P36507+P40337). The experiment in a line: Protac activity against VHL/MEK2 in human HT-29 cells harboring BRAF V600E variant assessed as degradation of MEK2 at 0.3 to 3 uM after 24 hrs by Western blot analysis. It is filed as cell-based.
T2 sequence (P36507 whole entry, looked up): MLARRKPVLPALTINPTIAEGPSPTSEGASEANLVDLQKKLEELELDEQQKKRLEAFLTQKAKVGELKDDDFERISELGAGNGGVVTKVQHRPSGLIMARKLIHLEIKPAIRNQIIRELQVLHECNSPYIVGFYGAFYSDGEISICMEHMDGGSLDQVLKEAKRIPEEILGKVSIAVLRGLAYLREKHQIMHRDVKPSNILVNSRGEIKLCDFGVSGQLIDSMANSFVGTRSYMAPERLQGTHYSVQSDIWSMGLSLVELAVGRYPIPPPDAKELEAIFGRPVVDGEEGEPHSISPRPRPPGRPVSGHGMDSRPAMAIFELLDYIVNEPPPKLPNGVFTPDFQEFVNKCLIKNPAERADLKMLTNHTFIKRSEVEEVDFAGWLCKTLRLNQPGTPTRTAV
T2 sequence (P40337 whole entry, looked up): as the sequence (P40337 whole entry, looked up) above
For test [3], the target named is Protein cereblon/Dual specificity mitogen-activated protein kinase kinase 1 (Homo sapiens) (UniProt Q02750+Q96SW2). The experiment in a line: Protac activity against CRBN/MEK1 in human HT-29 cells harboring BRAF V600E variant assessed as degradation of MEK1 at 0.3 to 3 uM after 24 hrs by Western blot analysis. It is filed as cell-based.
Protein cereblon/Dual specificity mitogen-activated protein kinase kinase 1 (Homo sapiens), sequence (Q02750 whole entry, looked up): as the sequence (Q02750 whole entry, looked up) above
Protein cereblon/Dual specificity mitogen-activated protein kinase kinase 1 (Homo sapiens), sequence (Q96SW2 whole entry, looked up): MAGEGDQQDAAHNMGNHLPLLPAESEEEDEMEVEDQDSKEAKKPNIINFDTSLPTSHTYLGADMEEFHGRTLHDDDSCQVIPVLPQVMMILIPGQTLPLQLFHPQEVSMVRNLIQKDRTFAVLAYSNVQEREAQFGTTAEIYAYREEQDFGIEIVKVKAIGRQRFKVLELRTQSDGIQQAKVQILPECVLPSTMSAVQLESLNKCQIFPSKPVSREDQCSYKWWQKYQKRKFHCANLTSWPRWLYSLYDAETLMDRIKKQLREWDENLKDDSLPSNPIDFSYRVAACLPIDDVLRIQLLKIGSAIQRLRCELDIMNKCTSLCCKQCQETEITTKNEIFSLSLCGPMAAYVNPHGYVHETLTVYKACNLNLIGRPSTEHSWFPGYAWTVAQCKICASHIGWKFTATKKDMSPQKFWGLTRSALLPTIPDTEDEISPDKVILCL
Test [4] addresses Protein cereblon/Dual specificity mitogen-activated protein kinase kinase 2 (Homo sapiens) (UniProt P36507+Q96SW2). Briefly: Protac activity against CRBN/MEK2 in human HT-29 cells harboring BRAF V600E variant assessed as degradation of MEK2 at 0.3 to 3 uM after 24 hrs by Western blot analysis. It is filed as cell-based.
For test [5], the target named is Dual specificity mitogen-activated protein kinase kinase 1 (Homo sapiens, UniProt Q02750). The experiment in a line: Inhibition of recombinant full length human His-tagged MEK1 expressed in baculovirus expression system using ERK K52R dead variant as substrate preincubated for 20 mins followed by incubation with 33P-ATP addition for 2 hrs by hotspot kinase assay.
Dual specificity mitogen-activated protein kinase kinase 1, sequence (Q02750 whole entry): as the sequence (Q02750 whole entry, looked up) above

Test [6] concerns the target Dual specificity mitogen-activated protein kinase kinase 2 (Homo sapiens, UniProt P36507). The experiment in a line: Inhibition of recombinant full length human His-tagged MEK2 expressed in baculovirus expression system using ERK K52R dead variant as substrate preincubated for 20 mins followed by incubation with 33P-ATP for 2 hrs by hotspot kinase assay.
Test [7] deals with T2, von Hippel-Lindau disease tumor suppressor/Dual specificity mitogen-activated protein kinase kinase 2 (Homo sapiens). The experiment in a line: Protac activity against VHL/MEK2 in human HT-29 cells harboring with BRAF V600E variant assessed as degradation of MEK2 by measuring MEK2 protein level up to 1 uM after 24 hrs by Western blot analysis. It is filed as cell-based.
The target is the same in test [8]. Briefly: Protac activity against VHL/MEK2 in human SK-MEL-28 cells harboring with BRAF V600E variant assessed as degradation of MEK2 by measuring MEK2 protein level up to 1 uM after 24 hrs by Western blot analysis. It is filed as cell-based.
Test [9] has as its target T1, von Hippel-Lindau disease tumor suppressor/Dual specificity mitogen-activated protein kinase kinase 1 (Homo sapiens). Briefly: Protac activity against VHL/MEK1 in human HT-29 cells harboring with BRAF V600E variant assessed as degradation of MEK1 by measuring reduction in MEK1 protein level at 0.1 uM after 10 hrs by LC-MS based Volcano plot analysis. It is filed as cell-based.

Test [10] concerns the target T2, von Hippel-Lindau disease tumor suppressor/Dual specificity mitogen-activated protein kinase kinase 2 (Homo sapiens). Briefly: Protac activity against VHL/MEK2 in human HT-29 cells harboring with BRAF V600E variant assessed as degradation of MEK2 by measuring reduction in MEK2 protein level at 0.1 uM after 10 hrs by LC-MS based Volcano plot analysis. It is filed as cell-based.

Test [11] has as its system HT-29. Briefly: Antiproliferative activity against human HT-29 cells assessed as reduction in cell growth after 3 days by MTT assay. It is filed as functional. In general terms: Tetrazolium assays rely on reduction of a dye to a coloured formazan, in cell work by metabolically active cells.
The test system of test [12] is SK-MEL-28. The experiment in a line: Antiproliferative activity against human SK-MEL-28 cells assessed as reduction in cell growth after 3 days by MTT assay. It is filed as functional.
A further test relates to COLO 205. Briefly: Antiproliferative activity against human COLO205 cells assessed as reduction in cell growth after 3 days by WST8 assay. It is filed as functional.
In another test the test system is UACC-257. The experiment in a line: Antiproliferative activity against human UACC257 cells assessed as reduction in cell growth after 3 days by MTT assay. It is filed as functional.
Test [13] concerns HT-29. Briefly: Inhibition of colony formation in human HT-29 cells at 10 to 100 nM supplemented with fresh medium containing compound every 3 days for 14 days by crystal violet staining based assay. It is filed as functional, cell-based.
Test [14] relates to SK-MEL-28. Briefly: Inhibition of colony formation in human SK-MEL-28 cells at 10 to 100 nM supplemented with fresh medium containing compound every 3 days for 14 days by crystal violet staining based assay. It is filed as functional, cell-based.

Protein cereblon/Dual specificity mitogen-activated protein kinase kinase 2 (Homo sapiens), sequence (P36507 whole entry, looked up): as the sequence (P36507 whole entry, looked up) above
Protein cereblon/Dual specificity mitogen-activated protein kinase kinase 2 (Homo sapiens), sequence (Q96SW2 whole entry, looked up): as the sequence (Q96SW2 whole entry, looked up) above
Dual specificity mitogen-activated protein kinase kinase 2, sequence (P36507 whole entry): as the sequence (P36507 whole entry, looked up) above

In the case of `Cc1ncsc1-c1ccc(CNC(=O)[C@@H]2C[C@@H](O)CN2C(=O)[C@@H](NC(=O)CCCCCCCCCCNCCCONC(=O)c2ccc(F)c(F)c2Nc2ccc(I)cc2F)C(C)(C)C)cc1`, the outcome in test [1] and in [2] was Active.
As to `Cc1ncsc1-c1ccc(CNC(=O)[C@@H]2C[C@@H](O)CN2C(=O)[C@@H](NC(=O)COCCOCCOCCNCCCONC(=O)c2ccc(F)c(F)c2Nc2ccc(I)cc2F)C(C)(C)C)cc1`, the outcome in [1] and in test [2] was Active.
On to `O=C1CCC(N2C(=O)c3cccc(NCCNCCCONC(=O)c4ccc(F)c(F)c4Nc4ccc(I)cc4F)c3C2=O)C(=O)N1` (stereo not given), for which the outcome in test [3] and in [4] was inactive.
A word on the IC50: it is the concentration that gives 50% inhibition. Broadly, the GI50 is the concentration giving 50% growth inhibition. For `Cc1ncsc1-c1ccc([C@H](C)NC(=O)[C@H]2C[C@H](O)CN2C(=O)[C@@H](NC(=O)CCCCCCCCCCNCCCONC(=O)c2ccc(F)c(F)c2Nc2ccc(I)cc2F)C(C)(C)C)cc1`, the half-maximal inhibitory concentration (IC50) in [5] came out at 1600 nM; in [6], 1500 nM. Further, the result in [7], in test [8], in [9] and in test [10] was inactive. The GI50 entry in the test on HT-29 [11], with SK-MEL-28 [12], with COLO 205 and in the test with UACC-257 was “inactive” each time. The inhibition result in the test with HT-29 [13] and in the test with SK-MEL-28 [14] was “inactive” each time.
As to `O=C(NOC[C@H](O)CO)c1ccc(F)c(F)c1Nc1ccc(I)cc1F` [MIRDAMETINIB], the outcome in test [7] and in [8] was inactive. The 50% growth inhibitory concentration (GI50) in the test on HT-29 [11] (HT-29, 72 h) is 3.1 nM; in the test with SK-MEL-28 [12] (SK-MEL-28, 72 h), 2.9 nM; in the test on COLO 205 (COLO 205, 72 h), 0.2 to 4.2 nM; in the test on UACC-257 (UACC-257, 72 h), 0.2 to 4.2 nM. For the same molecule, the inhibition entry in the test with HT-29 [13] and with SK-MEL-28 [14] was “Active” each time.
As to `Cc1ncsc1-c1ccc(CNC(=O)[C@@H]2C[C@@H](O)CN2C(=O)[C@@H](NC(=O)CCCCCCNCCCONC(=O)c2ccc(F)c(F)c2Nc2ccc(I)cc2F)C(C)(C)C)cc1`, the result in [1] and in test [2] was Active.
On to `O=C1CCC(N2C(=O)c3cccc(NCCOCCNCCCONC(=O)c4ccc(F)c(F)c4Nc4ccc(I)cc4F)c3C2=O)C(=O)N1` (stereo not given), for which the result in test [3] and in [4] was inactive.
